In article PMC8080595, “Discovery of a novel RORγ antagonist with skin-restricted exposure for topical treatment of mild to moderate psoriasis” (Scientific Reports, 2021):

Legend:
RORγ LBD = target: T1, RORγ LBD (Homo sapiens, UniProt P51449); test: LanthaScreen TR-FRET human RORγ coactivator assay; type: biochemical; conditions: antagonist mode, read-out: Binding of RORγ LBD, IC50
T1 construct: The assay was performed with GST-tag RORγ LBD (25 ng/reaction, Creative Biomart); purchased Creative Biomart
T1 sequence (P51449 269-508 limits assumed): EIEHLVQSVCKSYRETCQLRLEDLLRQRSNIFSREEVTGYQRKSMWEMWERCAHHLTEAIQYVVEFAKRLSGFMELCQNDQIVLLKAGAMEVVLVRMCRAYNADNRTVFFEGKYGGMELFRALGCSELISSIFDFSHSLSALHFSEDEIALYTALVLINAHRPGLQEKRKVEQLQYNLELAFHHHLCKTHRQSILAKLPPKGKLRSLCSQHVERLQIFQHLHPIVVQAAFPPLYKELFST
Text: In LanthaScreen TR-FRET RORγ coactivator assay, the RORγ LBD was constitutively active and the coactivator peptide (fluorescein-D22) was recruited in the absence of ligand, or compound (Fig. 2a). The binding of an antagonist to RORγ LBD causes a conformational change of the receptor, leading to a decrease in the affinity of the receptor for the coactivator peptide. The separation of the fluorescently labeled coactivator peptide from RORγ LBD from the receptor with the terbium-labeled antibody causes a decrease in the TR-FRET signal compared to those without compound. The assay was validated by detecting the ligand-independent recruitment of coactivator peptide in the presence or absence of RORγ LBD (2.5- to 3-fold assay window). Effects of the key compounds of the novel chemotype in Fig. 1, were tested in LanthaScreen TR-FRET RORγ coactivator assay.
The assay was performed with GST-tag RORγ LBD (25 ng/reaction, Creative Biomart), 0.6 μM Fluorescein-D22 coactivator peptide and 8 nM Tb anti-GST antibody (Invitrogen) at room temperature for 60 minutes. The fluorescent signals were measured with 520 nm emission and 495 nm excitation on Tecan Infinite. The data were calculated using DMSO control as 0% inhibition and non-protein control as 100% inhibition. IC50 values were calculated using non-linear regression analysis of GraphPad Prism in all assays.

[1] = tested on: IL-17 secretion from human PBMCs; test: Human IL-17 production assay using human PBMC; type: cell-based; conditions: cytostim stimulation 72 h
Procedure: To confirm cellular on-target effects, we investigated the inhibition of selected RORγ antagonists on RORγ-regulated IL-17 secretion using human PBMC. Human IL-17-producing cells were readily formed following cytostim stimulation. In human PBMC stimulated with cytostim for 72 h, differentiation of Th17 cells was confirmed by increased secretion of IL-17 (291 pg/mL) in cell culture supernatant compared to basal level of IL-17 (20 pg/mL IL-17 without cytostim stimulation), […] of IL-17 secretion.
Human PBMCs (Zenbio) in TexMACS media were stimulated by cytostim (Miltenyi) for 72 h following the vendor's instruction. Human IL-17A in cell culture supernatant was measured using AlphaLISA human IL-17A Biotin-free detection kit (Perkin Elmer) according to the manufacturer’s protocol.

Dermal PK, BALB/c mouse = type: in vivo; conditions: for Exposure in plasma: 2% in Vaseline, topical
Procedure: (§1) The dermal PK studies of Compound 1 in Vaseline were performed in dorsal skin of female C57BL/6 and male BALB/c mice via topical route. The skin (1.5 cm × 2 cm) was shaved one day prior to the dosing. At tissue collecting time point, the skin surface was decontaminated (twice with hand soap, twice with water, alternatively, and dried with tissue swabs). Stratum corneum is removed with tape strips for five times. The tissues were homogenized for PK analyses of Compound 1 by LC/MS.

in vivo = conditions: female, C57BL/6, mouse
Procedure: as §1

[2] = tested on: IL-23-induced psoriasis-like skin inflammation mice; test: IL-23-induced psoriasis-like skin inflammation mouse model, topical treatment; type: in vivo; conditions: for IL17 / IL-6 / TNFα / Thickness of the back skin: day 8, Mean ± SEM, n = 10
Procedure: Psoriasis was induced by intradermal injection of IL-23 on mouse skin as described by Rizzo et al.[19]. Three days later after shaving (day 1), two injections of IL-23 (0.5 µg protein per mouse) were performed on both sides of the dorsal skin (except naïve group) for 8 days. SHR168442 in Vaseline was topically applied daily starting three day before IL-23 injections, and then twice a day starting on the day of IL-23 injections. The mice were weighed daily, and the skin were scored daily on a scale from 0 to 4. At day 8, the skin thickness was measured in live mice with a caliper and the animal was sacrificed 3 h after the first topical application. The in-life portion of the study was carried out at Nanjing University (Nanjing, China). The experimental protocol used in this study was approved by IACUC in Nanjing, China. The experiments were conducted in accordance with the Guiding Principles for the Care and Use of Laboratory Animals and complied with the ARRIVE guidelines.
IL-17A, IL-6 and TNFα were determined in plasma collected at day 8 using a cytometric bead array (BD Biosciences) following the vendor's instruction.

ADORA2A = target: T2, ADORA2A (Homo sapiens, UniProt P29274); test: SAFETYscan47 Calcium Flux; type: cell-based; conditions: 3 µM
T2 construct: purchased DiscoverX (Eurofins) SAFETYscan47
Procedure: (§2) To further profile any off-target activity, we counter-screened SHR168442 in SAFETYscan47 panel, compiled by DiscoverX based on the recommendation by major pharmaceutical companies. SHR168442 was screened at 3 µM in duplicates.

[3] = tested on: targets in the SAFETYscan47 panel; test: SAFETYscan47 panel (DiscoverX), whole panel; conditions: 3 µM, duplicates, all targets
Procedure: as §2

T2 sequence (P29274 whole entry): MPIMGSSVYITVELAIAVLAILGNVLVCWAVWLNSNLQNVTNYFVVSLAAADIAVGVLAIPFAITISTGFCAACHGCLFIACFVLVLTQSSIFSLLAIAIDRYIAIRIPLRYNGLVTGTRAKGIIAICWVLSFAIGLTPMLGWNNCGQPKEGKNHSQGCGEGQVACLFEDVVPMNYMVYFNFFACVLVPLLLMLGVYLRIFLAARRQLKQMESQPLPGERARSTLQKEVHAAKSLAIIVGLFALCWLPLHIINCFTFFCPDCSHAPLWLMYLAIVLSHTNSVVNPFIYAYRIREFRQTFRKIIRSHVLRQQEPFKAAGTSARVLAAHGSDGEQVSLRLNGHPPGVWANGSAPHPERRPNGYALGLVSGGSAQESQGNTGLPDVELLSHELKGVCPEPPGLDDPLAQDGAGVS

## CCS(=O)(=O)c1ccc([C@H](CCO)c2nc3c(Cl)c(N4CCC(F)(F)CC4)c(Cl)cc3[nH]2)cc1 [SHR168442, (S)-3-(4,6-dichloro-5-(4,4-difluoropiperidin-1-yl)-1H-benzo[d]imidazol-2-yl)-3-(4-(ethylsulfonyl)phenyl)propan-1-ol]
RORγ LBD
  IC50: 35 ± 9 nM
[1]
  EC50: 20 ± 6 nM
  IC50: 20 nM
Dermal PK, BALB/c mouse; 3 h
  Exposure in plasma: blq (below limit of quantitation (< 6 ng/mL))
Dermal PK, BALB/c mouse; 6 h
  Exposure in plasma: blq (below limit of quantitation (< 6 ng/mL))
Dermal PK, BALB/c mouse; male, BALB/c, mouse, in vivo
  concentration at 3 h: 2460 ng/g
  concentration at 6 h: 4390 ng/g
In vivo; 3 h
  Exposure in plasma: 7.0 ng/mL
In vivo; 6 h
  Exposure in skin: 18,500 ng/g
In vivo; Exposure in plasma
  concentration at 3 h: 8.8 ng/mL
In vivo; Exposure in skin
  concentration at 6 h: 9710 ng/g
[2]; 0.5% in Vaseline topical
  IL17: 190 ± 28 fg/mL
  IL-6: 124 ± 32 fg/mL
  TNFα: 5495 ± 837 fg/mL
  Thickness of the back skin: 0.452 ± 0.020 mm
[2]; 0.5%, 2%, 8% in Vaseline topical, scale 0 to 4
  clinical scores: reduce clinical scores in a dose-dependent manner
[2]; 2% in Vaseline topical
  IL17: 172 ± 38 fg/mL
  IL-6: 112 ± 43 fg/mL
  TNFα: 4284 ± 804 fg/mL
  Thickness of the back skin: 0.436 ± 0.019 mm
[2]; 8% in Vaseline topical
  IL17: 185 ± 35 fg/mL
  IL-6: 123 ± 37 fg/mL
  TNFα: 3380 ± 491 fg/mL
  Thickness of the back skin: 0.330 ± 0.015 mm
[2]; 8% topical, relative to vehicle and naïve group
  reduction of skin thickness: 97%
[2]; all treatment groups
  body weight: no significant body weight loss
ADORA2A; Agonist
  % Response Average: 7.3%
  % Response Replicate 1: 0.0%
  % Response Replicate 2: 14.7%
ADORA2A; Antagonist
  % Response Average: 15.1%
  % Response Replicate 1: 5.4%
  % Response Replicate 2: 24.9%
[3]
  inhibition of the targets in the SAFETYscan47 panel: below 50%
